According to patent US20050233313A1, “Methods and reagents for identifying inhibitors of viral protease activity” (priority 2002, published 2005):

test system: β-galactosidase substrate with HIV protease cleavage site; experiment: cleavage of a β-galactosidase substrate by processed PR expressed from pMono in E. coli, Western blot; type: cell-based; conditions: single alanine substitutions in processed monomeric PR; full-length β-galactosidase cleavage, average of two or more inductions
Excerpt: Plasmid pMono expresses wild-type or mutated monomeric protease from the tac promoter (Amann et al. (1983) Gene 25:167-178) in Escherichia coli and was derived from plasmid P1+IQ (Baum et al. (1990) Proc. Natl. Acad. Sci. USA 87:10023-10027). Protease sequences in P1+1Q were replaced by a linker of 5′ XhoI-XbaI-SalI-PstI 3′ to produce p1CVx. Wild-type or mutated protease sequences were obtained from pET-PR by PCR with primers 5′Xho (AATATA-CTCGAG-[…], SEQ ID NO: 1) and 3′Xba (ATAAAT-TCTAGA-[…], SEQ ID NO: 2) and were inserted into p1CVx to produce pMono. The phagemid pET-PR contains the 99-residue coding domain of the monomeric protease (HXB2 isolate [Ratner et al. (1987) AIDS Res. Hum. Retrovir. 3:57-69]) inserted into the NdeI-BamHI sites of pET24a (Novagen). The Kunkel method using single-stranded templates of pET-PR substituted with uracil was employed for site-directed mutagenesis (Bebenek and Kunkel (1989) Nucleic Acids Res. 17:5408, Kunkel et al. (1991) Methods Enzymol204:125-139). Mutations were confirmed by DNA sequencing prior to transfer of the protease sequences into p1CVx.
Uninduced mid-log-phase (optical density at 600 nm=0.5) cultures of lac-E. coli strain MC1061 carrying pMono were grown in yeast-tryptone medium to produce samples for Western blot analysis. Cells were pelleted, resuspended in 400 μl of sodium dodecyl sulfate (SDS)-polyacrylamide gel electrophoresis (PAGE) sample buffer (Pettit et al. (1991) J. Biol. Chem. 266:14539-14547) (optical density at 600 nm=˜0.5), and heated to 95° C. for 4 min. SDS-PAGE was performed on Tris-glycine gels (7.5% polyacrylamide) (Laemmli (1970) Nature […]). Separated proteins were bound to nitrocellulose by electrotransfer, blocked for 1 h with 3% bovine serum albumin in Tris-buffered saline-0.1% Tween 20, and probed with anti-β-galactosidase monoclonal antibody (Boehringer) at a 1:5,000 dilution. Following multiple washes in Tris-buffered saline-0.1% Tween 20, β-galactosidase was detected with the ECL Plus system followed by autoradiography according to the instructions of the manufacturer (Amersham Pharmacia). The extent of β-galactosidase cleavage was determined by densitometric measurement on a Molecular Dynamics Storm model 800 Phosphorlmager. For scanning, the Phosphorlmager was set in the blue fluorescence and chemifluorescence mode with a photomultiplier tube voltage of 700 V. The final value for percent cleavage of the β-galactosidase substrate was determined by taking the average of two or more independent inductions.
For these studies, we modified an E. coli expression system developed as described in Baum et al. (1990) Proc. Natl. Acad. Sci. USA 87:10023-10027. The vector (pMono) expresses HIV protease and the β-galactosidase gene. A cleavage cassette consisting of a decapeptide corresponding to an HIV protease cleavage site was inserted into the β-galactosidase open reading frame. In this system, enzyme activity may be assessed via Western blotting as the percent cleavage of full-length β-galactosidase.

Point of comparison: “F99A: processed HIV-1 protease with single alanine substitution of dimer interface residue Phe 99”, “% Cleavage” value 0%. Against it:
- D25A: processed HIV-1 protease with replacement of the catalytic aspartate, negative control — the same, 0%
- L97A: processed HIV-1 protease with single alanine substitution of dimer interface residue Leu 97 — the same, 0%
- N98A: processed HIV-1 protease with single alanine substitution of dimer interface residue Asn 98 — higher, 68%
- P1A: processed HIV-1 protease with single alanine substitution of dimer interface residue Pro 1 — higher, 92%
- Q2A: processed HIV-1 protease with single alanine substitution of dimer interface residue Gln 2 — higher, 96%
- T4A: processed HIV-1 protease with single alanine substitution of dimer interface residue Thr 4 — higher, 96%
- T96A: processed HIV-1 protease with single alanine substitution of dimer interface residue Thr 96 — higher, 14%
- Wild type: wild-type mature 99-residue monomeric HIV-1 protease (HXB2) expressed from pMono — higher, 96%
